From patent US10676485B2, “Macrocyclic MCL-1 inhibitors and methods of use” (AbbVie Inc., priority 2017, dated 2020)
Where two headings read alike, the source gives them in different places.

Legend:
[1] = target: GST-MCL-1 (Homo sapiens (Human), UniProt Q07820); assay: TR-FRET MCL-1 binding assay (competition with probe F-Bak)
Procedure, shortened: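 Compounds as 11 three-fold dilutions from 25 μM with GST-MCL-1, F-Bak probe and Tb-anti-His antibody, 2 h at room temperature. TR-FRET at 340 nm excitation, 520/525 nm (F-Bak) and 495/510 nm (Tb) emission. Run without human serum and with 10% HS.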

[2] = test system: NCI-H929 human multiple myeloma tumor cell line; assay: NCI-H929 cell viability assay (CellTiter-Glo); assay type: cell-based; settings: NCI-H929, read-out: H929 Viability IC50 (μM), 10% FBS, 24 hours of compound treatment
Method: (§1) In one exemplary set of conditions, NCI-H929 or AMO-1 (ATCC. Manassas, Va.) were plated 4.000 cells per well in 384-well tissue culture plates (Corning. Corning, N.Y.) in a total volume of 25 μL RPMI tissue culture medium supplemented with 10% fetal bovine serum (Sigma-Aldrich, St. Louis, Mo.) and treated with a 3-fold serial dilution of the compounds of interest with a Labcyte Echo from a final concentration of 10 μM to 0.0005 μM. Each concentration was tested in duplicate at least 3 independent times. A luminescent signal proportional to the number of viable cells following 24 hours of compound treatment was determined using the CellTiter-Glo® Luminescent Cell Viability Assay according to the manufacturer's recommendations (Promega Corp., Madison, Wis.). The plates were read in a Perkin Elmer Envision using a Luminescence protocol. To generate dose response curves the data is normalized to percent viability by setting the averages of the staurosporine (10 uM) and DMSO only control wells to 0% and (00)% viability respectively. The IC50 values for the compounds are generated by fitting the normalized data with Accelrys Assay Explorer 3.3 to a sigmoidal curve model using linear regression.

[3] = test system: AMO-1 human multiple myeloma tumor cell line; assay: AMO-1 cell viability assay (CellTiter-Glo); assay type: cell-based; settings: AMO1, read-out: AMO-1 Viability IC50 (μM), 10% FBS, 24 hours of compound treatment
Method: as §1

[4] = read-out: MCL-1 Binding Ki (nM, 10% HS), in the presence of 10% HS
[5] = without HS, read-out: MCL-1 Binding Ki

GST-MCL-1, sequence (Q07820 whole entry): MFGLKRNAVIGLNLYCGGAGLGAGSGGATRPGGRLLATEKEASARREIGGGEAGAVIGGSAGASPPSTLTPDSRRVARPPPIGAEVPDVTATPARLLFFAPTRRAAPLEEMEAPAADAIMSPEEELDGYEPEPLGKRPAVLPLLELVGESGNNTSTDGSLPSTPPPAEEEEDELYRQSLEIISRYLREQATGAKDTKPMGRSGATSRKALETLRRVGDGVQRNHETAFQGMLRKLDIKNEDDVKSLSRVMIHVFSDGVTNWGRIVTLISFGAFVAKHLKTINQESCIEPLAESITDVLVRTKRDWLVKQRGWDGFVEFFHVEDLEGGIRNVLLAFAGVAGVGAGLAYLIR

Row | Structure (SMILES) | Ki [1, 4] | Ki [1, 5] | IC50 [2] | IC50 [3]
1 | Cc1c2ccc(c1Cl)O[C@H](CN1CCN(C)CC1)COc1ccc(OCc3ccnc(C4COCCO4)n3)c(c1)C[C@H](C(=O)O)Oc1ncnc3sc(-c4ccc(F)cc4)c-2c13 (stereo partly drawn) [Example 4, (7R,16R,21S)-19-chloro-10-{[2-(1,4-dioxan-2-yl)pyrimidin-4-yl]methoxy}-1-(4-fluorophenyl)-20-methyl-16-[(4-methylpiperazin-1-yl)methyl]-7,8,15,16-tetrahydro-18,21-etheno-13,9-(metheno)-6,14,17-trioxa-2-thia-3,5-diazacyclononadeca[1,2,3-cd]indene-7-carboxylic acid] | 0.32 nM | 0.055 nM | 0.00572 µM | 0.00273 µM
2 | Cc1c(Cl)c2c(Cl)c(C)c1-c1c(-c3ccc(F)cc3)sc3ncnc(c13)O[C@@H](C(=O)O)Cc1cc(ccc1OCc1ccnc([C@H]3CC[C@H](COC[C@H]4COCCO4)CC3)n1)OC[C@@H](CN1CCN(C)CC1)O2 [Example 51, (7R,16R)-19,23-dichloro-10-({2-[(1R,4r)-4-({[(2S)-1,4-dioxan-2-yl]methoxy}methyl)cyclohexyl]pyrimidin-4-yl}methoxy)-1-(4-fluorophenyl)-20,22-dimethyl-16-[(4-methylpiperazin-1-yl)methyl]-7,8,15,16-tetrahydro-18,21-etheno-13,9-(metheno)-6,14,17-trioxa-2-thia-3,5-diazacyclononadeca[1,2,3-cd]indene-7-carboxylic acid] | 0.131 nM | < 0.01 nM | 0.000299 µM | 0.000267 µM
3 | Cc1c(Cl)c2c(Cl)c(C)c1-c1c(-c3ccc(F)cc3)sc3ncnc(c13)O[C@@H](C(=O)O)Cc1cc(ccc1OCc1ccnc(OC[C@H]3COCCO3)n1)OC[C@@H](CN1CCN(C)CC1)O2 [Example 25, (7R,16R)-19,23-dichloro-10-[(2-{[(2R)-1,4-dioxan-2-yl]methoxy}pyrimidin-4-yl)methoxy]-1-(4-fluorophenyl)-20,22-dimethyl-16-[(4-methylpiperazin-1-yl)methyl]-7,8,15,16-tetrahydro-18,21-etheno-9,13-(metheno)-6,14,17-trioxa-2-thia-3,5-diazacyclononadeca[1,2,3-cd]indene-7-carboxylic acid] | 0.19 nM | 0.003 nM | 0.00188 µM | 0.000629 µM
4 | Cc1c(Cl)c2c(Cl)c(C)c1-c1c(C3CCCCC3)sc3ncnc(c13)O[C@@H](C(=O)O)Cc1cc(ccc1OCc1ccnc(-c3ccc(OC[C@@H]4COCCO4)cc3)n1)OC[C@@H](CN1CCN(C)CC1)O2 [Example 17, (7R,16R)-19,23-dichloro-1-cyclohexyl-10-{[2-(4-{[(2S)-1,4-dioxan-2-yl]methoxy}phenyl)pyrimidin-4-yl]methoxy}-20,22-dimethyl-16-[(4-methylpiperazin-1-yl)methyl]-7,8,15,16-tetrahydro-18,21-etheno-9,13-(metheno)-6,14,17-trioxa-2-thia-3,5-diazacyclononadeca[1,2,3-cd]indene-7-carboxylic acid] | 4.11 nM | 0.09 nM | 0.00565 µM | 0.001 µM
5 | Cc1c(Cl)c2c(Cl)c(C)c1-c1c(-c3ccc(F)cc3)sc3ncnc(c13)O[C@@H](C(=O)O)Cc1cc(ccc1OCc1cc(-c3ccc(OC[C@H]4COCCO4)cc3)ncn1)OC[C@@H](CN1CCN(C)CC1)O2 [Example 31, (7R,16R)-19,23-dichloro-10-{[6-(4-{[(2R)-1,4-dioxan-2-yl]methoxy}phenyl)pyrimidin-4-yl]methoxy}-1-(4-fluorophenyl)-20,22-dimethyl-16-[(4-methylpiperazin-1-yl)methyl]-7,8,15,16-tetrahydro-18,21-etheno-13,9-(metheno)-6,14,17-trioxa-2-thia-3,5-diazacyclononadeca[1,2,3-cd]indene-7-carboxylic acid] | 5.27 nM | 0.373 nM | 0.011 µM | 0.00419 µM
